Legend:
Assay type in all cases: cell-based
PC-3 = assay: MTS assay (cell growth inhibition), PC-3; settings: PC-3 cells, 72 hours incubation with test compound; concentration not given
Procedure: (§1) Cells were maintained at 37° C., 5% CO2 in DMEM media supplemented with 1% fetal bovine serum, penicillin/streptomycin and fungizone (Invitrogen). Cells were seeded into 96-well tissue culture plates at 3000 per well and cultured at 37° C. for 18 hours. Test compounds were dissolved and diluted to 300× in DMSO then diluted 1:40 in DMEM. Cells were incubated with test compounds for 72 hours followed by incubation with tetrazolium compound (3-(4,5-dimethylthiazol-2-yl)-5-(3-carboxymethoxyphenyl)-2-(4-sulfophenyl)-2H-tetrazolium, inner salt; MTS) and the electron coupling reagent, phenazine methosulfate (PMS) for 4 hours. […] The ability of compounds to inhibit cell growth in this assay is correlated with the reduction of dehydrogenase enzyme activity found in metabolically active cells. The measurement of the absorbance of the formazan was assessed using an ENVISION™ (Perkin Elmer) microplate reader at 492 nm. The calculated IC50 value is the concentration of the test compound that causes a 50% decrease in the absorbance.

DLD-1 = assay: MTS assay (cell growth inhibition), DLD-1; settings: DLD-1 cells, 72 hours incubation with test compound; concentration not given
Procedure: as §1

PACA-2 = assay: MTS assay (cell growth inhibition), PACA-2; settings: PACA-2 cells, 72 hours incubation with test compound; concentration not given
Procedure: as §1

NCI-H1299 = assay: MTS assay (cell growth inhibition), NCI-H1299; settings: NCI-H1299 cells, 72 hours incubation with test compound; concentration not given
Procedure: as §1

Kato III = assay: MTS assay (cell growth inhibition), Kato III; settings: Kato III cells, 72 hours incubation with test compound; concentration not given
Procedure: as §1

MDA-MB = assay: MTS assay (cell growth inhibition), MDA-MB; settings: MDA-MB cells, 72 hours incubation with test compound; concentration not given
Procedure: as §1

Structure (SMILES)	MTS CELL KILL DATA (% INHIBITION) PC-3 (PC-3)	MTS CELL KILL DATA (% INHIBITION) DLD-1 (DLD-1)	MTS CELL KILL DATA (% INHIBITION) PACA-2 (PACA-2)	MTS CELL KILL DATA (% INHIBITION) NCI-H1299 (NCI-H1299)	MTS CELL KILL DATA (% INHIBITION) Kato III (Kato III)	MTS CELL KILL DATA (% INHIBITION) MDA-MB (MDA-MB)
O=C1c2ccccc2C(=O)N1CCN1C(=O)c2cnc3[nH]ncc3c2C1=O [Example 131, 7-[2-(1,3-dioxo-1,3-dihydro-2H-isoindol-2-yl)ethyl]pyrazolo[3,4-b]pyrrolo[3,4-d]pyridine-6,8(3H,7H)-dione]	A (A = 80-100% INHIBITION)	A (A = 80-100% INHIBITION)	A (A = 80-100% INHIBITION)	A (A = 80-100% INHIBITION)	A (A = 80-100% INHIBITION)	A (A = 80-100% INHIBITION)
CC(CCN1C(=O)c2cnc3[nH]ncc3c2C1=O)CC(C)(C)C (stereo not drawn) [Example 117, 7-(3,5,5-trimethylhexyl)pyrazolo[3,4-b]pyrrolo[3,4-d]pyridine-6,8(3H,7H)-dione]	A (A = 80-100% INHIBITION)	C (C = <50% INHIBITION)	C (C = <50% INHIBITION)	C (C = <50% INHIBITION)	C (C = <50% INHIBITION)	A (A = 80-100% INHIBITION)
Cc1cccc(CCN2C(=O)c3cnc4[nH]ncc4c3C2=O)c1 [Example 86, 7-[2-(3-methylphenyl)ethyl]pyrazolo[3,4-b]pyrrolo[3,4-d]pyridine-6,8(3H,7H)-dione]	A (A = 80-100% INHIBITION)	C (C = <50% INHIBITION)	C (C = <50% INHIBITION)	C (C = <50% INHIBITION)	A (A = 80-100% INHIBITION)	A (A = 80-100% INHIBITION)
O=C1c2cnc3[nH]ncc3c2C(=O)N1CC1CCC1 [Example 76, 7-(cyclobutylmethyl)pyrazolo[3,4-b]pyrrolo[3,4-d]pyridine-6,8(3H,7H)-dione]	C (C = <50% INHIBITION)	C (C = <50% INHIBITION)	C (C = <50% INHIBITION)	C (C = <50% INHIBITION)	C (C = <50% INHIBITION)	C (C = <50% INHIBITION)
O=C1c2cnc3[nH]ncc3c2C(=O)N1CC1CCCO1 (stereo not drawn) [Example 107, 7-(tetrahydrofuran-2-ylmethyl)pyrazolo[3,4-b]pyrrolo[3,4-d]pyridine-6,8(3H,7H)-dione]	B (B = 50-79% INHIBITION)	C (C = <50% INHIBITION)	C (C = <50% INHIBITION)	C (C = <50% INHIBITION)	C (C = <50% INHIBITION)	B (B = 50-79% INHIBITION)
Cc1ccc(OCCN2C(=O)c3cnc4[nH]ncc4c3C2=O)cc1 [Example 125, 7-[2-(4-methylphenoxy)ethyl]pyrazolo[3,4-b]pyrrolo[3,4-d]pyridine-6,8(3H,7H)-dione]	A (A = 80-100% INHIBITION)	C (C = <50% INHIBITION)	A (A = 80-100% INHIBITION)	C (C = <50% INHIBITION)	C (C = <50% INHIBITION)	A (A = 80-100% INHIBITION)
